The target in one data set is T1, HDAC4 (Homo sapiens, UniProt P56524).
T1 construct: made in house
The data set can be described thus: HDAC enzyme activity assay (fluorogenic, Boc-Lys(trifluoroacetyl)-AMC substrate), HDAC4. The format is biochemical. To be noted: recombinant HDAC4; BOC-LYS-(TFA)-AMC as substrate, 100 mM TRIS, 300 mM KCl, pH 8.0 buffer, 30 °C. Here is the method:
(§1) Compounds 12–18 and 25–31 were tested as inhibitors of HDAC4 and HDAC8 isoforms according to the procedures described previously. […]. […]
(§2) HDAC enzyme activity assay
Recombinant HDAC4 and 8 were produced as described in [3]. Serial dilutions of the inhibitor in the assay buffer (25 mM Tris -HCl, pH 8.0, 75 mM KCl, 0.001 % Pluronic F-127) were incubated with HDAC in a black 96-well microtiter half -area plate (Greiner) for 60 min at 30 °C. Subsequentl y the reaction was started by the addition of 20 μM Boc -Lys(trifluoroacetyl) -AMC (Bachem) as a substrate.
(§3) After incubation for 60 min at 30 °C, the reaction was stopped by the addition of 1.7 μM SATFMK.
(§4) The deacetylated substrate was transformed into a flu orescent product by the addition of 0.4 mg/m L trypsin (Applichem). The release of AMC was followed in a microplate reader (PheraStar Plus, BMG Labtech) at 450 nm (λ Ex = 350 nm) and correlated to enzyme activity. Dose–response curves were produced with GraphPad Prism and fitted to a four parameters logistic function to obtain IC50 values […]
(§5) in which EA is the enzyme activity at a given inhibitor concentration x; Emax and E0 are the enzyme activities determined at zero and complete inhibition, respectively; IC50 represents the inhibitor concentration at which half the enzyme molecules are inhibited; h is the slope of the curve. […]
(§6) (1 picture or pasted object on this page, not shown here)

The target of a further data set is T2, HDAC8 (Homo sapiens, UniProt Q9BY41).
T2 construct: made in house
T2 sequence (Q9BY41 1-377): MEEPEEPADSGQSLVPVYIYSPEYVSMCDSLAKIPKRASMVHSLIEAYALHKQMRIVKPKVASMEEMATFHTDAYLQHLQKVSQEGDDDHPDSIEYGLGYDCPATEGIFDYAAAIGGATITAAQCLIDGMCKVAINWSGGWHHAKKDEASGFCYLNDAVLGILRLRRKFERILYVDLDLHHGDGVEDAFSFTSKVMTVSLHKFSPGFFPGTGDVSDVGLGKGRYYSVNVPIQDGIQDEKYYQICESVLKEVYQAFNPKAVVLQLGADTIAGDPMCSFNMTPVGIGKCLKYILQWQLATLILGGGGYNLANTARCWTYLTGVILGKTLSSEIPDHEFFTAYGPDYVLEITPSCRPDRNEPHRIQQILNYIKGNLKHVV
Kind of data set: HDAC enzyme activity assay (fluorogenic, Boc-Lys(trifluoroacetyl)-AMC substrate), HDAC8. The format is biochemical. The settings on record: recombinant HDAC8; BOC-LYS-(TFA)-AMC as substrate, 100 mM TRIS, 300 mM KCl, pH 8.0 buffer, 30 °C. Here is the method: as §1, §2
Recombinant HDAC4 and 8 were produced as described in [3]. […]
HDAC in a black 96-well microtiter half -area plate (Greiner) for 60 min at 30 °C. Subsequentl y the reaction was started by the addition of 20 μM Boc -Lys(trifluoroacetyl) -AMC (Bachem) as a substrate.
as §3, §4, §5, §6

T1 sequence (P56524 whole entry, species assumed): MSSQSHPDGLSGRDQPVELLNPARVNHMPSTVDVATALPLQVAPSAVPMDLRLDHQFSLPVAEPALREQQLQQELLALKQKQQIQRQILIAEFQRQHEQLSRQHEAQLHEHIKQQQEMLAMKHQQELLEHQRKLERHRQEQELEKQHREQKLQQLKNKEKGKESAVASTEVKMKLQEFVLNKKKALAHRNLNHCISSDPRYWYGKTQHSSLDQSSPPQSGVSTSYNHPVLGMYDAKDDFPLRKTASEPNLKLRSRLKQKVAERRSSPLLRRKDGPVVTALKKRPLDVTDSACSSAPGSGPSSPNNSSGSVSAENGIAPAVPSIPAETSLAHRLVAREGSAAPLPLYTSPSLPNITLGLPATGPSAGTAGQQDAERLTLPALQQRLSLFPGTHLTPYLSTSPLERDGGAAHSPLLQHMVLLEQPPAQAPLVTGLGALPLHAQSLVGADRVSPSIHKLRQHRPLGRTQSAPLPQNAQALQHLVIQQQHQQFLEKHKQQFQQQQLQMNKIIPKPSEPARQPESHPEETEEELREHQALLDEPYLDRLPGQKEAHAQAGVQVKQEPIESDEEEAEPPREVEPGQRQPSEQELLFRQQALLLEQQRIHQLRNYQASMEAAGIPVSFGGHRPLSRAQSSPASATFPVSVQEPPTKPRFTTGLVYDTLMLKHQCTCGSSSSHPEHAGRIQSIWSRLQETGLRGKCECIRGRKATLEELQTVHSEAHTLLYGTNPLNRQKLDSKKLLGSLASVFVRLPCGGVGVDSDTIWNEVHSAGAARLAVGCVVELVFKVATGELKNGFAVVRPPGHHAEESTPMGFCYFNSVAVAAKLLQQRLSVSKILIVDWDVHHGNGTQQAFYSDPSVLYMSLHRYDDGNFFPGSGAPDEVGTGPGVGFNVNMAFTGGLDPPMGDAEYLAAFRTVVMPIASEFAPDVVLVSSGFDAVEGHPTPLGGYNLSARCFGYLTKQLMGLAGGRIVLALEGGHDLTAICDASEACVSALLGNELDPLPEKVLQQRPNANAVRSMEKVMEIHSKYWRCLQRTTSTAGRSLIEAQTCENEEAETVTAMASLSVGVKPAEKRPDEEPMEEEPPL

Broadly, the IC50 is the midpoint of a concentration-inhibition curve. In general, melting point refers to the temperature, or range, at which the solid turns liquid. For `CSc1nc(C)cc(OCC(=O)NO)n1` [compound 12], the melting point was 182 to 184 °C. Further, on HDAC4, the IC50 was 38 µM. The IC50 on HDAC8 came to 28 µM.
On to `CCSc1nc(C)cc(OCC(=O)NO)n1` [compound 13], for which the melting point was 175 to 176 °C. Further, the IC50 on HDAC8 was 13 µM.
`C=CCNc1nc(C)cc(OCC(=O)NO)n1` [compound 14] displayed a melting point of 177 to 179 °C. Also, at HDAC8, the 50% inhibitory concentration (IC50) came to 15 µM.
Turning to `Cc1cc(OCC(=O)NO)nc(NCc2ccccc2)n1` [compound 15], the melting point is 168 to 170 °C. The IC50 on HDAC8 is 14 µM.
Consider `Cc1cc(OCC(=O)NO)nc(N(C)C)n1` [compound 16], for which the melting point lay in the range of 192 to 194 °C. Also, on HDAC8, the concentration for half-maximal inhibition (IC50) worked out at 35 µM.
For `Cc1cc(OCC(=O)NO)nc(N2CCCC2)n1` [compound 17], in that order: 178 to 180 °C and 13 µM.
The corresponding values for `Cc1cc(OCC(=O)NO)nc(O)n1` [compound 18] are 190 to 191 °C (dec.) and 60 µM.
Regarding `CSc1nc(C)cc(OCCCC(=O)NO)n1` [compound 25], the melting point fell in the range of 150 to 151 °C. For the same compound, the IC50 at HDAC4 is > 50 µM. The IC50 at HDAC8 turned out to be 5.65 µM.
Consider `CSc1nc(C)cc(OCCCCCC(=O)NO)n1` [compound 26], for which the melting point lay in the range of 112 to 113 °C. The IC50 on HDAC4 is > 50 µM. On HDAC8, the IC50 amounted to 2.05 µM.
For `CCCc1c(C)nc(SC)nc1OCC(=O)NO` [compound 27], in that order: 144 to 146 °C, 38 µM and 1.4 µM.
Consider `CCCc1c(C)nc(SC)nc1OCCCC(=O)NO` [compound 28], for which the melting point fell in the range of 125 to 127 °C. In addition, on HDAC4, the half-maximal inhibitory concentration (IC50) was > 35 µM. In addition, the IC50 at HDAC8 was 2.4 µM.
On to `CCCc1c(C)nc(SC)nc1OCCCCCC(=O)NO` [compound 29, N-hydroxy-6-[6-methyl-2-(methylthio)-5-propylpyrimidin-4-yloxy]hexanamide], for which the IC50 on HDAC4 was determined as 16.6 µM; on HDAC8 it was 1.2 µM.
`CCCc1c(C)nc(SC)n(CC(=O)NO)c1=O` [compound 30, N-Hydroxy-[6-methyl-2-(methylthio) -4-oxo-5-propylpyrimidin-3(4H)-yl]acetamide] registered a melting point of 185 to 187 °C. Also, the IC50 on HDAC4 is > 35 µM. Further, the IC50 at HDAC8 is > 35 µM.
Compound `CCCc1c(C)nc(SC)n(CCCC(=O)NO)c1=O` [compound 31, N-Hydroxy-4-[6-methyl-2-(methylthio) -4-oxo-5-propylpyrimidin-3(4H)-yl]butanamide] gave a melting point of 133 to 135 °C. Also, the concentration for half-maximal inhibition (IC50) on HDAC4 is > 35 µM. Further, the IC50 at HDAC8 is > 35 µM.

The values are drawn from PMC9296983, “Synthesis and HDAC inhibitory activity of pyrimidine-based hydroxamic acids” (Beilstein Journal of Organic Chemistry, 2022).
